Source: patent publication US20120142735A1, “DISUBSTITUTED [4-(5-AMINOMETHYL-PHENYL)-PIPERIDIN-1-YL]- 1H-INDOL-3-YL]-METHANONES” (SANOFI, priority 2009, published 2012)
“And” between values parts separate entries of the source, which are not always exact repeats. Equal entries are not always repeated. Structures can show the parent of a compound that is named as a salt.

Each molecule was assayed against T1, recombinant human β tryptase (Homo sapiens, UniProt P20231) (assay: Tryptase primary screen (chromogenic assay), IC50 and Ki determination). Details: Tryptase Ki, substrate S2366 0.5 mM (2×Km), room temperature; Ki=IC50/(1+[Substrate]/Km).
T1 construct: host or cells: yeast cells
Assay type: biochemical
Description: Tryptase inhibition activity is confirmed using either isolated human lung tryptase or recombinant human β tryptase expressed in yeast cells. Essentially equivalent results are obtained using isolated native enzyme or the expressed enzyme. The assay procedure employs a 96 well microplate (Costar 3590) using L-pyroglutamyl-L-prolyl-L-arginine-para-nitroanilide (S2366: Quadratech) as substrate (essentially as described by McEuen et. al. Biochem Pharm, 1996, 52, pages 331-340). Assays are performed at room temperature using 0.5 mM substrate (2×Km) and the microplate is read on a microplate reader (Beckman Biomek Plate reader) at 405 nm wavelength.
Materials and Methods for Tryptase primary screen (Chromogenic Assay)
S2366 (Stock solutions of 2.5 mM).
Purified recombinant beta Tryptase Stocks of 310 μg/mL.
• Add 60 μL of diluted substrate (final concentration of 500 μM in assay buffer) to each well • Add compound in duplicates, final concentration of 20 μM, volume 20 μL • Add enzyme at a final concentration of 50 ng/mL in a volume of 20 μL • Total volume for each well is 100 μL • Agitate briefly to mix and incubate at room temp in the dark for 30 minutes • Read absorbencies at […]
Each plate has the following controls: • Totals: 60 μL of substrate, 20 μL of buffer (with 0.2% final concentration of DMSO), • 20 μL of enzyme • Non-specific: 60 μL of substrate, 40 μL of buffer (with 0.2% DMSO) • Totals: 60 μL of substrate, 20 μL of buffer (No DMSO), 20 μL of enzyme • Non-specific: 60 μL of substrate, 40 μL of buffer (No DMSO)
The protocol is essentially the same as above except that the compound is added in duplicates at the following final concentrations: 0.01, 0.03, 0.1, 0.3, 1, 3, 10 μM (All dilutions carried out manually). For every assay, whether single point or IC50 determination, a standard compound is used to derive IC50 for comparison. From the IC50 value, the Ki can be calculated using the following formula: Ki=IC50/(1+[Substrate]/Km).

T1 sequence (P20231 31-275): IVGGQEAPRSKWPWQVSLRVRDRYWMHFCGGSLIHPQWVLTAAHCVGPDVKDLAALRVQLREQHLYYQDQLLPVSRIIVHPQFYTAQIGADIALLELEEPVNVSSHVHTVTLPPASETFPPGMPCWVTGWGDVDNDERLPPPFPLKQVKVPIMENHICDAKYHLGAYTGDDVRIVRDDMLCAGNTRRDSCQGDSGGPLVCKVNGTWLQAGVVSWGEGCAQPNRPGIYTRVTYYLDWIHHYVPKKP

Question: For COCCn1cc(C(=O)N2CCC(c3cc(CN)ccc3F)CC2)c2cc(Cl)cc(C)c21 [Example 1, [4-(5-Aminomethyl-2-fluoro-phenyl)-piperidin-1-yl]-[5-chloro-1-(2-methoxy-ethyl)-7-methyl-1H-indol-3-yl]-methanone hydrochloride], which Ki is on record?
Answer: 0.116 µM

Question: For COCCn1cc(C(=O)N2CCC(c3cc(CN)ccc3F)CC2)c2ccc(F)c(C)c21 [Example 2, [4-(5-Aminomethyl-2-fluoro-phenyl)-piperidin-1-yl]-[6-fluoro-1-(2-methoxy-ethyl)-7-methyl-1H-indol-3-yl]-methanone hydrochloride], which Ki is on record?
Answer: 0.045 µM

Question: COCCn1cc(C(=O)N2CCC(c3cc(CN)ccc3F)CC2)c2cc(F)cc(C)c21 [Example 3, [4-(5-Aminomethyl-2-fluoro-phenyl)-piperidin-1-yl]-[5-fluoro-1-(2-methoxy-ethyl)-7-methyl-1H-indol-3-yl]-methanone hydrochloride] was tested. Which Ki did it give?
Answer: 0.035 µM

Question: How did the Ki turn out when COCCn1cc(C(=O)N2CCC(c3cc(CN)ccc3F)CC2)c2c(F)ccc(C)c21 [Example 4, [4-(5-Aminomethyl-2-fluoro-phenyl)-piperidin-1-yl]-[4-fluoro-1-(2-methoxy-ethyl)-7-methyl-1H-indol-3-yl]-methanone hydrochloride] was run?
Answer: 0.026 µM

Question: Which Ki does the source give for COCCn1cc(C(=O)N2CCC(c3cc(CN)ccc3F)CC2)c2c(F)ccc(OC(F)(F)F)c21 [Example 5, [4-(5-Aminomethyl-2-fluoro-phenyl)-piperidin-1-yl]-[4-fluoro-1-(2-methoxy-ethyl)-7-trifluoromethoxy-1H-indol-3-yl]-methanone hydrochloride] here?
Answer: 0.322 µM

Question: With COCCn1cc(C(=O)N2CCC(c3cc(CN)ccc3F)CC2)c2c(Cl)ccc(C)c21 [Example 6, [4-(5-Aminomethyl-2-fluoro-phenyl)-piperidin-1-yl]-[4-chloro-1-(2-methoxy-ethyl)-7-methyl-1H-indol-3-yl]-methanone hydrochloride] as the molecule, how does the Ki read?
Answer: 0.035 µM

Question: With CCCCn1cc(C(=O)N2CCC(c3cc(CN)ccc3F)CC2)c2c(OC(F)(F)F)ccc(F)c21 [Example 7, [4-(5-Aminomethyl-2-fluoro-phenyl)-piperidin-1-yl]-(1-butyl-7-fluoro-4-trifluoromethoxy-1H-indol-3-yl)-methanone hydrochloride] as the molecule, how does the Ki read?
Answer: 0.365 µM

Question: For COCCn1cc(C(=O)N2CCC(c3cc(CN)ccc3F)CC2)c2c(Cl)ccc(Cl)c21 [Example 8, [4-(5-Aminomethyl-2-fluoro-phenyl)-piperidin-1-yl]-[4,7-dichloro-1-(2-methoxy-ethyl)-1H-indol-3-yl]-methanone hydrochloride], which Ki is on record?
Answer: 0.134 µM and 0.074 µM

Question: With COCCn1cc(C(=O)N2CCC(c3cc(CN)ccc3F)CC2)c2c(F)ccc(Cl)c21 [Example 9, [4-(5-Aminomethyl-2-fluoro-phenyl)-piperidin-1-yl]-[7-chloro-4-fluoro-1-(2-methoxy-ethyl)-1H-indol-3-yl]-methanone hydrochloride] as the molecule, how does the Ki read?
Answer: 0.049 µM and 0.032 µM

Question: For COCCn1cc(C(=O)N2CCC(c3cc(CN)ccc3F)CC2)c2c(OC(F)(F)F)ccc(Cl)c21 [Example 10, [4-(5-Aminomethyl-2-fluoro-phenyl)-piperidin-1-yl]-[7-chloro-1-(2-methoxy-ethyl)-4-trifluoromethoxy-1H-indol-3-yl]-methanone hydrochloride], which Ki is on record?
Answer: 0.146 µM and 0.122 µM

Question: How did the Ki turn out when CCCn1cc(C(=O)N2CCC(c3cc(CN)ccc3F)CC2)c2c(OC(F)(F)F)ccc(F)c21 [Example 11, [4-(5-Aminomethyl-2-fluoro-phenyl)-piperidin-1-yl]-(1-propyl-7-fluoro-4-trifluoromethoxy-1H-indol-3-yl)-methanone hydrochloride] was run?
Answer: 0.208 µM and 0.186 µM

Question: COCCn1cc(C(=O)N2CCC(c3cc(CN)ccc3F)CC2)c2c(Cl)ccc(OC(F)(F)F)c21 [Example 12, [4-(5-Aminomethyl-2-fluoro-phenyl)-piperidin-1-yl]-[4-chloro-1-(2-methoxy-ethyl)-7-trifluoromethoxy-1H-indol-3-yl]-methanone hydrochloride] was tested. Which Ki did it give?
Answer: 0.171 µM

Question: COCCn1cc(C(=O)N2CCC(c3cc(CN)ccc3F)CC2)c2c(C(F)(F)F)ccc(F)c21 [Example 13, [4-(5-Aminomethyl-2-fluoro-phenyl)-piperidin-1-yl]-[7-fluoro-1-(2-methoxy-ethyl)-4-trifluoromethyl-1H-indol-3-yl]-methanone hydrochloride] was tested. Which Ki did it give?
Answer: 0.129 µM

Question: With COCCn1cc(C(=O)N2CCC(c3cc(CN)ccc3F)CC2)c2c(C(F)(F)F)ccc(OC)c21 [Example 14, [4-(5-Aminomethyl-2-fluoro-phenyl)-piperidin-1-yl]-[7-methoxy-1-(2-methoxy-ethyl)-4-trifluoromethyl-1H-indol-3-yl]-methanone hydrochloride] as the molecule, how does the Ki read?
Answer: 0.048 µM

Question: How did the Ki turn out when COCCn1cc(C(=O)N2CCC(c3cc(CN)ccc3F)CC2)c2c(C)ccc(F)c21 [Example 15, [4-(5-Aminomethyl-2-fluoro-phenyl)-piperidin-1-yl]-[7-fluoro-1-(2-methoxy-ethyl)-4-methyl-1H-indol-3-yl]-methanone hydrochloride] was run?
Answer: 0.045 µM

Question: With COCCn1cc(C(=O)N2CCC(c3cc(CN)ccc3F)CC2)c2c(Cl)cc(Cl)cc21 [Example 16, [4-(5-Aminomethyl-2-fluoro-phenyl)-piperidin-1-yl]-[4,6-dichloro-1-(2-methoxy-ethyl)-1H-indol-3-yl]-methanone hydrochloride] as the molecule, how does the Ki read?
Answer: 0.649 µM

Question: COCCn1cc(C(=O)N2CCC(c3cc(CN)ccc3F)CC2)c2c(F)cc(F)cc21 [Example 18, [4-(5-Aminomethyl-2-fluoro-phenyl)-piperidin-1-yl]-[4,6-difluoro-1-(2-methoxy-ethyl)-1H-indol-3-yl]-methanone hydrochloride] was tested. Which Ki did it give?
Answer: 0.192 µM

Question: Which Ki does the source give for COCCn1cc(C(=O)N2CCC(c3cc(CN)ccc3F)CC2)c2c(F)c(F)ccc21 [Example 19, [4-(5-Aminomethyl-2-fluoro-phenyl)-piperidin-1-yl]-[4,5-difluoro-1-(2-methoxy-ethyl)-1H-indol-3-yl]-methanone hydrochloride] here?
Answer: 0.142 µM

Question: For COCCn1cc(C(=O)N2CCC(c3cc(CN)ccc3F)CC2)c2cc(OC)c(OC)cc21 [Example 20, [4-(5-Aminomethyl-2-fluoro-phenyl)-piperidin-1-yl]-[5,6-dimethoxy-1-(2-methoxy-ethyl)-1H-indol-3-yl]-methanone hydrochloride], which Ki is on record?
Answer: 0.09 µM

Question: How did the Ki turn out when NCc1ccc(F)c(C2CCN(C(=O)c3cn(CCOC(F)(F)F)c4c(F)ccc(OC(F)(F)F)c34)CC2)c1 [Example 21, [4-(5-Aminomethyl-2-fluoro-phenyl)-piperidin-1-yl]-[7-fluoro-4-trifluoromethoxy-1-(2-trifluoromethoxy-ethyl)-1H-indol-3-yl]-methanone hydrochloride] was run?
Answer: 0.487 µM

Question: With Cc1ccc(F)c2c(C(=O)N3CCC(c4cc(CN)ccc4F)CC3)cn(CCOC(F)(F)F)c12 [Example 22] as the molecule, how does the Ki read?
Answer: 0.731 µM

Same assay, conditions: substrate S2366 0.5 mM (2×Km), room temperature; Ki=IC50/(1+[Substrate]/Km); read-out: Tryptase Ki

Question: COCCn1cc(C(=O)N2CCC(c3cc(CN)ccc3F)CC2)c2c(F)ccc(F)c21 [Example 17, [4-(5-Aminomethyl-2-fluoro-phenyl)-piperidin-1-yl]-[4,7-difluoro-1-(2-methoxy-ethyl)-1H-indol-3-yl]-methanone] was tested. Which Ki did it give?
Answer: 0.025 µM
